28 compounds from US12428420B2, “Tricyclic heterocycles as FGFR inhibitors” (Incyte Corporation, priority 2021, dated 2025) can be followed below.

One experiment relates to RT-112/84 cell line. The experiment can be described thus: Luminescent Viability Assay (CellTiter-Glo). The class given is cell-based. As to conditions: RT-112/84 cell line (bladder, FGFR3-TACC3), 3 days. On the procedure: RT112 cells (cell lines and genetic profiles further detailed in Table 2) were purchased from ATCC (Manassas, VA) and maintained in RPMI, 10% FBS (Gibco/Life Technologies). To measure the effect of test compounds on the viability of cells, the cells were plated with RPMI 10% FBS (5×10^3 cells/well/in 50 μL) into black 96-well Greiner polystyrene in the presence or absence of 50 μL of a concentration range of test compounds. After 3 days, 100 μL of CellTiter-Glo Reagent (Promega) was added. Luminescence was read with a TopCount (PerkinElmer). IC50 determination was performed by fitting the curve of percent inhibition versus the log of the inhibitor concentration using the GraphPad Prism 5.0 software.

Experiment [1] deals with wild-type un-phosphorylated FGFR3 protein (Homo sapiens, UniProt P22607). Briefly: FGFR Enzymatic Assay (FRET peptide phosphorylation). The class given is biochemical. To be noted: pre-incubated for 4 hours.
wild-type un-phosphorylated FGFR3 protein, sequence (P22607 23-806): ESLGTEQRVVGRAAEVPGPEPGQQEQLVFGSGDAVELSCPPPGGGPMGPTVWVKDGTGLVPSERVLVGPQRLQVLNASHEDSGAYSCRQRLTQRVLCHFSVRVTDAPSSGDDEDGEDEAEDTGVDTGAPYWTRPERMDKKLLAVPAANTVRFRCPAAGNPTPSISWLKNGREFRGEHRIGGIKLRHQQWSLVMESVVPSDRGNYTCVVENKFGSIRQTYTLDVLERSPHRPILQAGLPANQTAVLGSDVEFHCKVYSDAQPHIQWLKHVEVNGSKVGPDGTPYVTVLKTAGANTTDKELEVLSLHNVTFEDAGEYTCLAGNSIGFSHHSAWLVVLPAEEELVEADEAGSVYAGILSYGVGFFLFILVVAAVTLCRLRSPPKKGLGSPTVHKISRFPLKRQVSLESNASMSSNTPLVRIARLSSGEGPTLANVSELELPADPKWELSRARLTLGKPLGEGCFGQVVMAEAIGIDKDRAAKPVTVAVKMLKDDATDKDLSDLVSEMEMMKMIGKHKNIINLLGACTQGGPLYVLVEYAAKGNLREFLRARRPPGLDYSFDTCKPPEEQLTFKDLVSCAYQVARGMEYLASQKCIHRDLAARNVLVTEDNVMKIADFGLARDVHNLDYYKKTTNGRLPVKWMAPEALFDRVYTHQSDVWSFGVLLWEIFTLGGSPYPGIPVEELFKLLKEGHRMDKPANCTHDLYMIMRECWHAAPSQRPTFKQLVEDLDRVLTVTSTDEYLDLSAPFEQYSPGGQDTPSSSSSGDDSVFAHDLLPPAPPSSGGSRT
Procedure: The inhibitor potency of the exemplified compounds was determined in an enzyme discontinuous assay that measures peptide phosphorylation using FRET measurements to detect product formation. Inhibitors were serially diluted in DMSO and a volume of 0.2 μL was transferred to the wells of a 384-well plate. A 5 μL/well volume of enzyme isoforms of FGFR (-1, -2, -3 wild-type and mutant isoforms, -4) including phosphorylated and un-phosphorylated proteins diluted in assay buffer (50 mM HEPES, 10 mM MgCl2, 1 mM EGTA, 0.01% Tween-20, 5 mM DTT, pH 7.5) was added to the plate and pre-incubated with inhibitor for 5 to 15 minutes at ambient temperature. Appropriate controls (enzyme blank and enzyme with no inhibitor) were included on the plate. The reaction was initiated by the addition of a 5 μL/well volume containing both biotinylated [sequence] peptide substrate (SEQ ID NO: 1) and ATP in assay buffer. The 10 μL/well reaction concentration of the peptide substrate was 500 nM whereas the ATP concentration was maintained near or below the ATP Km. The ATP Km values were pre-determined in a separate series of experiments. The reaction plate was incubated at 25° C. for 1 hr and the reactions were ended with the addition of 5 μL/well of quench solution (50 mM Tris, 150 mM NaCl, 0.5 mg/mL BSA, pH 7.8; 45 mM EDTA, 600 nM staurosporin, with Perkin Elmer Lance Reagents at 3.75 nM Eu-antibody PY20 and 180 nM APC-Streptavidin). The plate was allowed to equilibrate for ˜10 minutes at ambient temperature before scanning on a PheraStar plate reader (BMG Labtech) instrument.
Either GraphPad prism or XLfit was used to analyze the data. The IC50 values were derived by fitting the data to a four parameter logistic equation producing a sigmoidal dose-response curve with a variable Hill coefficient. Prism equation: Y=Bottom+(Top−Bottom)/(1+10^((Log IC50−X)*Hill slope)); XLfit equation: Y=(A+((B−A)/(1+((X/C)^D)))) where X is the logarithm of inhibitor concentration and Y is the response.

For the compound `CC(C#N)n1cc(-c2cnc3ccn4c(CO)c(-c5c(Cl)cccc5Cl)nc4c3c2)cn1` (single isomer, unassigned) [17 peak 1], the 50% inhibitory concentration (IC50) in the experiment with RT-112/84 cell line (Homo sapiens, RT112/84, 72 h) is below 10 nM; in experiment [1] it was below 1 nM.

For the compound `CC(C#N)n1cc(-c2cnc3ccn4c(CO)c(-c5c(Cl)cccc5Cl)nc4c3c2)cn1` (single isomer, unassigned) [17 peak 2], the IC50 was below 10 nM with RT-112/84 cell line and below 1 nM in experiment [1].

Consider `CC(O)Cn1cc(-c2cnc3ccn4c(CO)c(-c5c(Cl)cccc5Cl)nc4c3c2)cn1` (single isomer, unassigned) [18 peak 1], for which the IC50 with RT-112/84 cell line (Homo sapiens, RT112/84, 72 h) lay in the range of 10 to 50 nM; in experiment [1], 1 to 5 nM.

Turning to `CC(O)Cn1cc(-c2cnc3ccn4c(CO)c(-c5c(Cl)cccc5Cl)nc4c3c2)cn1` (single isomer, unassigned) [18 peak 2], the IC50 in the experiment on RT-112/84 cell line lay within 10 to 50 nM; in experiment [1], 1 to 5 nM.

On to `CC(CC#N)n1cc(-c2cnc3ccn4c(CO)c(-c5c(Cl)cccc5Cl)nc4c3c2)cn1` (single isomer, unassigned) [23 peak 1], for which the 50% inhibitory concentration (IC50) is 10 to 50 nM in the experiment on RT-112/84 cell line (Homo sapiens, RT112/84, 72 h) and below 1 nM in experiment [1].

With `CC(CC#N)n1cc(-c2cnc3ccn4c(CO)c(-c5c(Cl)cccc5Cl)nc4c3c2)cn1` (single isomer, unassigned) [23 peak 2], the figures for the IC50 (in the experiment on RT-112/84 cell line; in experiment [1]) were 10 to 50 nM and below 1 nM, respectively.

With `O=S1(=O)CCCC(n2cc(-c3cnc4ccn5c(CO)c(-c6c(Cl)cccc6Cl)nc5c4c3)cn2)C1` (single isomer, unassigned) [26 peak 1], the IC50 lay in the range of 10 to 50 nM in the experiment on RT-112/84 cell line (Homo sapiens, RT112/84, 72 h) and 1 to 5 nM in experiment [1].

Consider `O=S1(=O)CCCC(n2cc(-c3cnc4ccn5c(CO)c(-c6c(Cl)cccc6Cl)nc5c4c3)cn2)C1` (single isomer, unassigned) [26 peak 2], for which the IC50 is below 10 nM with RT-112/84 cell line and below 1 nM in experiment [1].

Turning to `OCc1c(-c2c(Cl)cccc2Cl)nc2c3cc(-c4cnn(Cc5ccncn5)c4)cnc3ccn12` [Example 1, (2-(2,6-Dichlorophenyl)-9-(1-(pyrimidin-4-ylmethyl)-1H-pyrazol-4-yl)imidazo[2,1-J][1,6]naphthyridin-3-yl)methanol], the IC50 was 10 to 50 nM in the experiment with RT-112/84 cell line (Homo sapiens, RT112/84, 72 h) and 1 to 5 nM in experiment [1].

In the case of `N#Cc1cncc(Cn2cc(-c3cnc4ccn5c(CO)c(-c6c(Cl)cccc6Cl)nc5c4c3)cn2)c1` [Example 2, 5-((4-(2-(2,6-Dichlorophenyl)-3-(hydroxymethyl)imidazo[2,1-f][1,6]naphthyridin-9-yl)-1H-pyrazol-1-yl)methyl)nicotinonitrile], the IC50 in the experiment on RT-112/84 cell line (Homo sapiens, RT112/84, 72 h) is 10 to 50 nM; in experiment [1], below 1 nM.

As for `N#Cc1ccc(Cn2cc(-c3cnc4ccn5c(CO)c(-c6c(Cl)cccc6Cl)nc5c4c3)cn2)cn1` [Example 3, 5-((4-(2-(2,6-Dichlorophenyl)-3-(hydroxymethyl)imidazo[2,1-f][1,6]naphthyridin-9-yl)-1H-pyrazol-1-yl)methyl)picolinonitrile], the IC50 in the experiment on RT-112/84 cell line (Homo sapiens, RT112/84, 72 h) was below 10 nM; in experiment [1], below 1 nM.

`N#Cc1cc(Cn2cc(-c3cnc4ccn5c(CO)c(-c6c(Cl)cccc6Cl)nc5c4c3)cn2)ccn1` [Example 4, 4-((4-(2-(2,6-Dichlorophenyl)-3-(hydroxymethyl)imidazo[2,1-f][1,6]naphthyridin-9-yl)-1H-pyrazol-1-yl)methyl)picolinonitrile]: the IC50 in the experiment with RT-112/84 cell line (Homo sapiens, RT112/84, 72 h) was below 10 nM; in experiment [1], below 1 nM.

Regarding `OCc1c(-c2c(Cl)cccc2Cl)nc2c3cc(-c4cnn(Cc5ccnc(C(F)(F)F)c5)c4)cnc3ccn12` [Example 5, (2-(2,6-Dichlorophenyl)-9-(1-((2-(trifluoromethyl)pyridin-4-yl)methyl)-1H-pyrazol-4-yl)imidazo[2,1-f][1,6]naphthyridin-3-yl)methanol], the IC50 in the experiment on RT-112/84 cell line (Homo sapiens, RT112/84, 72 h) is below 10 nM; in experiment [1], 1 to 5 nM.

For `O=C(c1ccc(-c2cnc3ccn4c(CO)c(-c5c(Cl)cccc5Cl)nc4c3c2)cc1)N1CCOCC1` [Example 6, (4-(2-(2,6-Dichlorophenyl)-3-(hydroxymethyl)imidazo[2,1-f][1,6]naphthyridin-9-yl)phenyl)(morpholino)methanone], the IC50 in the experiment on RT-112/84 cell line (Homo sapiens, RT112/84, 72 h) lay in the range of 10 to 50 nM; in experiment [1], 1 to 5 nM.

As for `O=C(c1ccc(-c2cnc3ccn4c(CO)c(-c5c(Cl)cccc5Cl)nc4c3c2)cc1)N1C[C@@H]2C[C@H]1CO2` [Example 7, ((1S,4S)-2-Oxa-5-azabicyclo[2.2.1]heptan-5-yl)(4-(2-(2,6-dichlorophenyl)-3-(hydroxymethyl)imidazo[2,1-f][1,6]naphthyridin-9-yl)phenyl)methanone], the IC50 in the experiment on RT-112/84 cell line (Homo sapiens, RT112/84, 72 h) was 10 to 50 nM; in experiment [1], 1 to 5 nM.

As to `O=C(CO)N1CCN(Cc2ccc(-c3cnc4ccn5c(CO)c(-c6c(Cl)cccc6Cl)nc5c4c3)cc2)CC1` [Example 8, 1-(4-(4-(2-(2,6-Dichlorophenyl)-3-(hydroxymethyl)imidazo[2,1-f][1,6]naphthyridin-9-yl)benzyl)piperazin-1-yl)-2-hydroxyethan-1-one], the IC50 in the experiment with RT-112/84 cell line (Homo sapiens, RT112/84, 72 h) was 10 to 50 nM; in experiment [1], 1 to 5 nM.

`CC(=O)N1CCN(Cc2ccc(-c3cnc4ccn5c(CO)c(-c6c(Cl)cccc6Cl)nc5c4c3)cc2)CC1` [Example 9, 1-(4-(4-(2-(2,6-Dichlorophenyl)-3-(hydroxymethyl)imidazo[2,1-f][1,6]naphthyridin-9-yl)benzyl)piperazin-1-yl)ethan-1-one]: the IC50 with RT-112/84 cell line (Homo sapiens, RT112/84, 72 h) is 10 to 50 nM; in experiment [1], 1 to 5 nM.

Regarding `O=C(CO)N1CCN(c2ccc(-c3cnc4ccn5c(CO)c(-c6c(Cl)cccc6Cl)nc5c4c3)cc2)CC1` [Example 10, 1-(4-(4-(2-(2,6-Dichlorophenyl)-3-(hydroxymethyl)imidazo[2,1-f][1,6]naphthyridin-9-yl)phenyl)piperazin-1-yl)-2-hydroxyethan-1-one], the IC50 is 10 to 50 nM in the experiment on RT-112/84 cell line (Homo sapiens, RT112/84, 72 h) and 1 to 5 nM in experiment [1].

For the compound `Cc1cccc(Cl)c1-c1nc2c3cc(-c4cnn(C5CCN(C)CC5)c4)cnc3ccn2c1CO` [Example 11, (2-(2-Chloro-6-methylphenyl)-9-(1-(1-methylpiperidin-4-yl)-1H-pyrazol-4-yl)imidazo[2,1-J][1,6]naphthyridin-3-yl)methanol], the IC50 fell in the range of 10 to 50 nM in the experiment with RT-112/84 cell line (Homo sapiens, RT112/84, 72 h) and 1 to 5 nM in experiment [1].

On to `CN(C)C(=O)c1ccc(Cn2cc(-c3cnc4ccn5c(CO)c(-c6c(Cl)cccc6Cl)nc5c4c3)cn2)cn1` [Example 12, 5-((4-(2-(2,6-Dichlorophenyl)-3-(hydroxymethyl)imidazo[2,1-f][1,6]naphthyridin-9-yl)-1H-pyrazol-1-yl)methyl)-N,N-dimethylpicolinamide], for which the IC50 with RT-112/84 cell line (Homo sapiens, RT112/84, 72 h) was below 10 nM; in experiment [1] it was below 1 nM.

On to `Cc1c(-c2c(Cl)cccc2Cl)nc2c3cc(-c4cnn(C5CN(C(=O)c6cn(C)nn6)C5)c4)cnc3ccn12` [Example 13, (3-(4-(2-(2,6-Dichlorophenyl)-3-methylimidazo[2,1-J][1,6]naphthyridin-9-yl)-1H-pyrazol-1-yl)azetidin-1-yl)(1-methyl-1H-1,2,3-triazol-4-yl)methanone], for which the IC50 with RT-112/84 cell line (Homo sapiens, RT112/84, 72 h) was 10 to 50 nM; in experiment [1] it was 1 to 5 nM.

With `Cc1c(-c2c(Cl)cccc2Cl)nc2c3cc(-c4cnn(C5CN(C(=O)c6nnn(C)n6)C5)c4)cnc3ccn12` [Example 14, (3-(4-(2-(2,6-Dichlorophenyl)-3-methylimidazo[2,1-J][1,6]naphthyridin-9-yl)-1H-pyrazol-1-yl)azetidin-1-yl)(2-methyl-2H-tetrazol-5-yl)methanone], the IC50 in the experiment with RT-112/84 cell line (Homo sapiens, RT112/84, 72 h) was 10 to 50 nM; in experiment [1], 1 to 5 nM.

Take `CCn1cc(-c2cnc3ccn4c(CO)c(-c5c(Cl)cccc5Cl)nc4c3c2)cn1` [Example 15, (2-(2,6-Dichlorophenyl)-9-(1-ethyl-1H-pyrazol-4-yl)imidazo[2,1-f][1,6]naphthyridin-3-yl)methanol]: the IC50 is below 10 nM with RT-112/84 cell line (Homo sapiens, RT112/84, 72 h) and 1 to 5 nM in experiment [1].

As for `CC(C)(C#N)n1cc(-c2cnc3ccn4c(CO)c(-c5c(Cl)cccc5Cl)nc4c3c2)cn1` [Example 16, 2-(4-(2-(2,6-Dichlorophenyl)-3-(hydroxymethyl)imidazo[2,1-f][1,6]naphthyridin-9-yl)-1H-pyrazol-1-yl)-2-methylpropanenitrile], the IC50 lay within 10 to 50 nM in the experiment on RT-112/84 cell line (Homo sapiens, RT112/84, 72 h) and 1 to 5 nM in experiment [1].

Regarding `CN(C)C(=O)Cn1cc(-c2cnc3ccn4c(CO)c(-c5c(Cl)cccc5Cl)nc4c3c2)cn1` [Example 19, 2-(4-(2-(2,6-Dichlorophenyl)-3-(hydroxymethyl)imidazo[2,1-f][1,6]naphthyridin-9-yl)-1H-pyrazol-1-yl)-N,N-dimethylacetamide], the IC50 with RT-112/84 cell line (Homo sapiens, RT112/84, 72 h) lay in the range of 10 to 50 nM; in experiment [1], 1 to 5 nM.

On to `CC(=O)N1CCC(n2cc(-c3cnc4ccn5c(CO)c(-c6c(Cl)cccc6Cl)nc5c4c3)cn2)CC1` [Example 20, 1-(4-(4-(2-(2,6-Dichlorophenyl)-3-(hydroxymethyl)imidazo[2,1-f][1,6]naphthyridin-9-yl)-1H-pyrazol-1-yl)piperidin-1-yl)ethan-1-one], for which the IC50 is below 10 nM in the experiment with RT-112/84 cell line (Homo sapiens, RT112/84, 72 h) and below 1 nM in experiment [1].

As for `COCC(=O)N1CCC(n2cc(-c3cnc4ccn5c(CO)c(-c6c(C)cccc6Cl)nc5c4c3)cn2)CC1` [Example 21, 1-(4-(4-(2-(2-Chloro-6-methylphenyl)-3-(hydroxymethyl)imidazo[2,1-f][1,6]naphthyridin-9-yl)-1H-pyrazol-1-yl)piperidin-1-yl)-2-methoxyethan-1-one], the IC50 in the experiment on RT-112/84 cell line (Homo sapiens, RT112/84, 72 h) is below 10 nM; in experiment [1] it was 1 to 5 nM.

Turning to `Cc1cccc(Cl)c1-c1nc2c3cc(-c4cnn(CC(C)(C)O)c4)cnc3ccn2c1CO` [Example 22, 1-(4-(2-(2-Chloro-6-methylphenyl)-3-(hydroxymethyl)imidazo[2,1-f][1,6]naphthyridin-9-yl)-1H-pyrazol-1-yl)-2-methylpropan-2-ol], the IC50 in the experiment on RT-112/84 cell line (Homo sapiens, RT112/84, 72 h) was 10 to 50 nM; in experiment [1] it was 1 to 5 nM.
